The source of these data is patent US20230285481A1, “TREATMENT OF CANCER HARBORING MUTATIONS IN THE TP53 GENE AND/OR POST-TRANSLATIONAL MODIFICATIONS IN THE P53 PROTEIN WITH PARVOVIRUSES” (UNIVERSIDAD AUTÓNOMA DE MADRID, priority 2018, published 2023).

Common to all, as to assay type: cell-based, human
Assay [1] deals with U87-MG glioblastoma cells. The experiment in a line: MVM infection markers (NS1, Pp53-S15, vDNA) by IF-confocal, Southern and western blot in U87-MG. (In general: In western blotting, separated proteins are transferred to a membrane and probed.)
Protocol: Immunofluorescence analyses were performed on neurospheres of hGSCs (human glioblastoma stem cells) and established adherent cell lines as follows: • Neurosphere staining. The cell spheres were fixed for 30 minutes with paraformaldehyde (PFA) 4%, then permeabilized for 10 minutes at room temperature with 0.1% Triton X-100 (Merck) in PBS, and blocked by incubating 20 minutes with 0.1% Triton X-100 and 10% fetal bovine serum (Sigma) in PBS. Neurospheres were incubated in the same buffer with the primary antibodies indicated in the figures for 1 h at 37° C., and finished by four five-minute PBS washes. Then neurospheres were incubated with the secondary antibodies at appropriate concentrations in the same buffer and conditions, and finally stained with DAPI for half an hour and mounted embedding at 37° C. in 0.8% agarose-LGT prepared in PBS. Embedded neurospheres were applied as 200 microliters drops on pre-cooled large (2×3 cm) coverslips and stored at 4° C. in the dark until confocal analysis. • Adherent cells. The cell lines were seeded on coverslips, treated as indicated in the figures and fixed for 10 minutes with 4% paraformaldehyde. Staining with antibodies was carried out essentially as described above for the neurospheres. Cells were mounted with Fluoromount G (Southern Biotech). Preparations were kept at least 16 h at room temperature in the dark before observation under a microscope. • Analysis of virus replication by FISH. This method was used to determine the degree of replication of the parvovirus MVM genome. The probe used was a mixture of three DNA oligonucleotides labeled at the 3′ terminal end with the Cy5 fluorophore, and complementary to different sequences of the MVM genome. […] The images were processed with Adobe Photoshop CS5 programs (Adobe Systems Incorporated) and ImageJ/FIJI (http://rsb.info.nih.gov/ij/) taking the same samples as a zero-signal reference without antibodies (auto-fluorescence control), or only with secondary antibodies. […]
For assay [2], the system named is U373-MG glioblastoma cells. The experiment in a line: Clonogenic analysis of cell viability (colony formation) in U373-MG. The note with it: single agent: CisPt 1-hour treatment, or MVMp singly inoculated at two MOI.
Protocol: Consequently, the CisPt dose effect on different MVMp life cycle parameters, and on p53 phosphorylation and functional signaling in U373-MG cells, was analyzed. For this, the U373-MG cells treated with Cis-Platinum doses (10-120 microM) for 1 hour at 37° C. were inoculated with MVMp to allow adsorption, and then of the infection was allowed to progress for 24 hours. Cells were sampled and processed for virus macromolecular markers and Pp53-S15 determinations.
We finally analyzed whether these MVM/CisPt cooperative effects impact cancer cells viability, and therefore whether they imply a therapeutic significance.
The subject of assay [3] is U373-MG glioblastoma cells. The experiment in a line: MVM infection markers (NS1, Pp53-S15, vDNA) by cytometry, IF-confocal and western blot in U373-MG. The text has this:
In all the experiments, a minimum of 30,000 events per sample were acquired in a FACSCantoII cytometer (BD Biosciences), which were pre-selected by a region based on their size and complexity (FSC and SSC parameters, respectively) in order to exclude cellular debris and other contaminating particles. The CellQuest software (BD Biosciences) was used to acquire the events and the FlowJo software (Tree Star) was used to analyze the data. The cell cycle analysis was in accordance to [Gil-Ranedo, J., Hernando, E., Riolobos, L., Dominguez, C., Kann, M, and José M Almendral. 2015. The mammalian cell cycle regulates nuclear parvovirus capsid assembly. PlosPathogens, 11; 11 (6): e1004920]. For staining, cells were permeabilized with PBS+0.1% triton X-100 for 10 minutes at room temperature, then blocked with the same buffer supplemented with 1% FCS for 20 minutes. Cells were re-suspended in PBS (pH 7.2)+0.5% BSA and the primary antibodies indicated in the figures were added followed by 1 h stirring at 37° C. Cells were washed in PBS and the secondary antibodies were added and incubated similarly. Two further washes in PBS were made before analyzing the samples in the flow cytometer.
Immunofluorescence analyses were performed on neurospheres of hGSCs (human glioblastoma stem cells) and established adherent cell lines as follows: • Neurosphere staining. The cell spheres were fixed for 30 minutes with paraformaldehyde (PFA) 4%, then permeabilized for 10 minutes at room temperature with 0.1% Triton X-100 (Merck) in PBS, and blocked by incubating 20 minutes with 0.1% Triton X-100 and 10% fetal bovine serum (Sigma) in PBS. Neurospheres were incubated in the same buffer with the primary antibodies indicated in the figures for 1 h at 37° C., and finished by four five-minute PBS washes. Then neurospheres were incubated with the secondary antibodies at appropriate concentrations in the same buffer and conditions, and finally stained with DAPI for half an hour and mounted embedding at 37° C. in 0.8% agarose-LGT prepared in PBS. Embedded neurospheres were applied as 200 microliters drops on pre-cooled large (2×3 cm) coverslips and stored at 4° C. in the dark until confocal analysis. • Adherent cells. The cell lines were seeded on coverslips, treated as indicated in the figures and fixed for 10 minutes with 4% paraformaldehyde. Staining with antibodies was carried out essentially as described above for the neurospheres. Cells were mounted with Fluoromount G (Southern Biotech). Preparations were kept at least 16 h at room temperature in the dark before observation under a microscope. • Analysis of virus replication by FISH. This method was used to determine the degree of replication of the parvovirus MVM genome. The probe used was a mixture of three DNA oligonucleotides labeled at the 3′ terminal end with the Cy5 fluorophore, and complementary to different sequences of the MVM genome. Cells adhered and fixed in 4% paraformaldehyde were permeabilized for 10 minutes with 0.2% Triton X-100 (Merck) in PBS and equilibrated for 5 minutes at room temperature in 2×SSC (0.3 M NaCl; 30 mM Na2C6H5O7, pH 7) supplemented with 15% formamide. Hybridization was with 500 ng/ml of each oligonucleotide in FISH buffer (5×SSC, 0.5% SDS, 10% dextran sulfate, 50% formamide) for 2.5 hours at 37° C. The preparations were washed twice with 2×SSC, 15% formamide for 30 minutes. […]

`O=c1[nH]cc(F)c(=O)[nH]1` [5FU, 5-fluorouracil]: the “p53 phosphorylation at the Ser15 residue” value in assay [1] (uninfected U87-MG cells, IF-confocal) is “substantially increased”.
Consider `N.N.[Cl][Pt][Cl]` [CisPt, Cisplatin], for which the “cell viability (clonogenic assay)” value in assay [2] was “progressively decreased the viability”. For the same compound, the “NS1 levels by western blot” value in assay [3] (MVMp infected U373-MG, 5 to 20 microM CisPt) is on record as “increasing NS1 levels”. In addition, the “virus genome (vDNA) replication levels” value in assay [3] (MVMp infected U373-MG, IF-confocal, CisPt dose effect) is recorded as “benefitted from 10 microM CisPt but not from higher doses”. The “percentage of cells expressing NS1 and level of NS1 expression” value in assay [3] (MVMp infected U373MG, flow cytometry, combined treatment with single dose of CD versus simple infection) is reported as “highest increase”. Moreover, the Pp53-S15 levels entry in assay [3] (U373-MG, IF-confocal, 5-20 microM Cis-Pt, 1 hour, then MVMp 24 hours) is “significant increase”. Besides, in assay [3] (U373MG, flow cytometry, single dose, also in treated non-infected cells), the Pp53-S15 induction entry is reported as “generalized Pp53-S15 induction in all cells”. The “percentage of NS1+ cells after drug pre-treatment” value in assay [1] (U87-MG treated with different Cis-Pt doses prior to MVMp infection) is “very significant increase”. Besides, the “MVMp genome replication (vDNA) after drug pre-treatment” value in assay [1] (U87-MG, Cis-Pt dose effect, MVMp infection) was “benefitted from the 10 or 20 microM Cis-Pt treatment, but not from higher doses”.
